Experiment [1] has as its system IL-2 promoter. Kind of experiment: IL-2 promoter luciferase reporter assay in anti-CD3 activated Jurkat cells. It is filed as cell-based. To be noted: Homo sapiens, TCR-induced (anti-CD3) IL-2 promoter luciferase, 2 h pre-incubation. The procedure, abridged:
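Jurkat cells transiently transfected with an IL-2 promoter–luciferase plasmid; 24 h later pre-incubated 2 h with compound (1 uM-50 uM), then activated on plates coated with 5 ug/ml anti-CD3. Luciferase activity read by luminometer; IC50 taken as 50% inhibition of TCR-induced promoter activation.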
(In general: Reporter assays use an easily measured gene product as a stand-in for the process of interest.)

Experiment [2] relates to skin allograft rejection. Kind of experiment: Inhibition of skin allograft rejection (Balb/c tail skin grafted onto C57BL/6 mouse). It is filed as in vivo. As for the experimental part: For the experiment, allogeneic Balb/c(H-2d) mouse-tail skin was grafted onto C57BL/6(H-2b) mouse. Generally 7-8 mice were assigned to each group. All the phenyl derivatives were dissolved in 100% ethanol, mixed with olive oil, and adjusted to the final concentration of ethanol therein less than 5%. […] Meanwhile, for the group of untreated mice, an olive oil-ethanol mixture was administered as a control. The grafted skin was monitored daily after the removal of the bandage on days 7-9. Rejection was defined as more than 80% necrosis of the graft epithelium.

Experiment [3] addresses T1, GST-fused lck SH2 domain (Homo sapiens, UniProt P06239).
T1 construct: GST (Glutathione transferase)-fused lck SH2 domain
Kind of experiment: Inhibition of in vitro binding of lck SH2 domain to its cognate pYEEI peptide (BIAcore 2000). Particulars: IC50 class for inhibition of GST-lckSH2 binding to immobilized biotinylated […]pYEEIPI peptide; read-out: BOND DEGREE WITH SH2 OF 1ck. The procedure, abridged:
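Surface plasmon resonance: biotinylated pYEEIPI peptide immobilized on the sensor surface, GST-fused lck SH2 domain injected over it. Binding recorded as resonance units (1,000 RU = 1 ng/mm^2); inhibition by compounds seen as reduced RU.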
(In general: SPR reads the build-up and loss of mass on a sensor chip optically.)

Experiment [4] has as its system collagen-induced rheumatoid arthritis. Kind of experiment: Inhibition of collagen-induced rheumatoid arthritis in DBA1/LacJ mice. It is filed as in vivo, mouse. To be noted: 50 mg/kg/day i.p. daily; day 15 after treatment (day 36 after primary immunization); sum of scores of four legs, maximum 16; mean ± standard deviation. Details: key: sum of 4 leg scores (0-4 each), max 16. The essentials:
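DBA1/LacJ mice primed with collagen II, boosted at 2 weeks with 50 μg C II/IFA. From week 3, compounds at 50 mg/kg/day were given i.p. daily in 5% ethanol–olive oil for 15–20 days (6–8 mice/group). Arthritic index (four paws, maximum 16) was scored daily and reported as group mean ± SD.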

Setting [5] is: 100 mg/kg/day into abdominal cavity from day of transplantation until complete rejection.

Each structure is given as a SMILES string.

T1 sequence (P06239 127-224 limits assumed): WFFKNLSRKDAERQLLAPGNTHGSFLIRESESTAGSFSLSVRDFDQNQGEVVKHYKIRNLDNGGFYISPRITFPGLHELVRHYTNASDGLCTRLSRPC

Consider `COC(=O)[C@@H](Cc1ccc(O)c(O)c1)NC(=O)/C=C/c1ccc(O)c(O)c1` [Example 1, 3-(3,4-dihydroxy-phenyl)-(R)-2-[3-trans-(3,4-dihydroxy-phenyl)-acryloylamino]-propionic acid methyl ester], for which the results for the IC50 in experiment [1] and in experiment [3] were 1.2 µM and less than 10 µM, respectively. The “Survival time of skin graft tissue (days ± variance)” value (“Survival time of skin graft tissue” for short) came to 15.1 ± 1.5 days in experiment [2] (setting [5]) and 11.2 ± 0.5 days in experiment [2] (Example (1) 50 mg/kg/day). Besides, in experiment [4], the Arthritis index worked out at 4.3 ± 1.5.

As for `NC(=O)[C@H](Cc1ccc(O)c(O)c1)NC(=S)/C=C/c1ccc(O)c(O)c1` [Example 28, 3-(3,4-dihydroxy-phenyl)-(S)-2-[3-trans-(3,4-dihydroxy-phenyl)-thioacryloylamino]-propioneamide], the IC50 in experiment [1] is 14.1 µM; in experiment [3], 10 to 25 µM. Further, in experiment [2] (setting [5]), the “Survival time of skin graft tissue” value came out at 13.9 ± 0.9 days. The compound also had an Arthritis index in experiment [4] of 5.8 ± 0.6.

For `CN(C(=O)/C=C/c1ccc(O)c(O)c1)[C@@H](Cc1ccc(O)c(O)c1)C(=O)OC(C)(C)C` [Example 41, 3-(3,4-dihydroxy-phenyl)-(S)-2-{[3-trans-(3,4-dihydroxy-phenyl)-acryloyl]-methyl-amino}-propionic acid tert-butyl ester], the IC50 in experiment [1] is 15.7 µM; in experiment [3] it was 25 to 50 µM. In addition, the “Survival time of skin graft tissue” value in experiment [2] (setting [5]) stood at 13.7 ± 0.6 days. The compound also yielded an Arthritis index in experiment [4] of 6.7 ± 1.6.

On to `CCOC(=O)[C@H](Cc1ccc(O)c(O)c1)NC(=O)/C=C/c1ccc(O)c(O)c1` [Example 10, 3-(3,4-dihydroxy-phenyl)-(S)-2-[3-trans-(3,4-dihydroxy-phenyl)-acryloylamino]-propionic acid ethyl ester], for which the IC50 is 4.4 µM in experiment [1] and 10 to 25 µM in experiment [3]. Further, in experiment [2] (setting [5]), the “Survival time of skin graft tissue” value is on record as 15.3 ± 0.8 days. In experiment [4], the Arthritis index is 5.8 ± 0.8.

Consider `COC(=O)C(Cc1ccc(O)c(O)c1)NC(=O)c1ccc(O)c(O)c1` (stereo not drawn) [Example 51, 2-(3,4-dihydroxy-benzoylamino)-3-(3,4-dihydroxy-phenyl)-propionic acid methyl ester], for which the IC50 is 17.5 µM in experiment [1] and less than 10 µM in experiment [3]. The “Survival time of skin graft tissue” value in experiment [2] (setting [5]) is 12.5 ± 1.1 days. The Arthritis index in experiment [4] amounted to 5.5 ± 0.5.
